Assay results reported in ChEMBL document CHEMBL4828719, “H2dpa derivatives containing pentadentate ligands: An acyclic adjuvant potentiates meropenem activity in vitro and in vivo against metallo-β-lactamase-producing Enterobacterales” (Eur J Med Chem, 2021).
≈ marks a conversion by molar mass, not a printed value. Calls of active or inactive are those of the source. The rule behind the calls is not given here.

Legend:
Klebsiella pneumoniae [1] = assay: Antibiotic adjuvant activity against meropenem-treated NDM-producing carbapenem resistant Klebsiella pneumoniae infected in BALB/c mouse sepsis model assessed as mouse rescue at 10 mg/kg, ip in the presence of meropenem measured after 48 hrs; assay type: functional
Klebsiella pneumoniae [2] = assay: Antibacterial activity against NDM-producing carbapenem resistant Klebsiella pneumoniae infected in BALB/c mouse sepsis model assessed as animal survival at 10 mg/kg, ip measured after 48 hrs; assay type: functional, organism-based
Escherichia coli [3] = assay: Antibacterial activity against IMP-4 producing Escherichia coli DH5 alpha assessed as bacterial growth at 8 ug/ml incubated for 16 to 20 hrs by CLSI based microdilution method; assay type: functional; settings: dose 8 µg/ml; time 16-20 hrs
[4] = Zinc chelation-dependent inhibition of NDM-1 (unknown origin) expressed in Escherichia coli BL21 (DE3) using meropenem as substrate preincubated with enzyme for 5 to 10 mins followed by substrate addition
[5] = Zinc chelation-dependent inhibition of IMP-4 (unknown origin) expressed in Escherichia coli BL21 (DE3) using imipenem as substrate preincubated with enzyme for 5 to 10 mins followed by substrate addition
Escherichia coli [6] = assay: Antibacterial activity against NDM-1 producing Escherichia coli DH5alpha assessed as decrease in bacterial growth incubated for 16 to 20 hrs by CLSI based microdilution method; assay type: functional; settings: DH5[alpha], time 16-20 hrs
Escherichia coli [7] = assay: Antibacterial activity against VIM-1 producing Escherichia coli DH5alpha assessed as decrease in bacterial growth incubated for 16 to 20 hrs by CLSI based microdilution method; assay type: functional; settings: DH5[alpha], time 16-20 hrs
Enterobacter cloacae = assay: Antibacterial activity against MBL producing Enterobacter cloacae isolates assessed as inhibition of bacterial growth at 64 ug/ml incubated for 16 to 20 hrs by CLSI based microdilution method; assay type: functional, organism-based; settings: dose 64.0 µg/ml, time 16-20 hrs
Klebsiella oxytoca = assay: Antibacterial activity against MBL producing Klebsiella oxytoca isolates assessed as inhibition of bacterial growth at 64 ug/ml incubated for 16 to 20 hrs by CLSI based microdilution method; assay type: functional, organism-based; settings: dose 64.0 µg/ml, time 16-20 hrs
Citrobacter freundii = assay: Antibacterial activity against MBL producing Citrobacter freundii isolates assessed as inhibition of bacterial growth at 64 ug/ml incubated for 16 to 20 hrs by CLSI based microdilution method; assay type: functional, organism-based; settings: dose 64.0 µg/ml, time 16-20 hrs
Escherichia coli [8] = assay: Antibiotic adjuvant activity against meropenem-treated VIM-1 producing Escherichia coli DH5 alpha assessed as bacterial growth at 8 ug/ml incubated for 16 to 20 hrs in the presence of meropenem by CLSI based microdilution method; assay type: functional; settings: dose 8 µg/ml; time 16-20 hrs
Escherichia coli [9] = assay: Antibiotic adjuvant activity against meropenem-treated IMP-4 producing Escherichia coli DH5 alpha assessed as bacterial growth at 8 ug/ml incubated for 16 to 20 hrs in the presence of meropenem and 100 uM zinc sulfate by CLSI based microdilution method; assay type: functional; settings: dose 8 µg/ml; time 16-20 hrs
GES1 = assay: Cytotoxicity against human GES1 cells assessed as live cells by measuring green fluorescence at 32 ug/ml measured after 24 hrs by calceinAM/propidium iodide staining based fluorescence microscopy; assay type: cell-based; settings: ges1, 24 h, dose 32 µg/ml
[10] = Acute toxicity in BALB/c mouse assessed as pathological changes in liver at 50 mg/kg, ip administered as single dose measured after 24 hrs by hematoxylin and eosin staining based assay; assay type: organism-based; settings: in vivo
[11] = Acute toxicity in BALB/c mouse assessed as pathological changes in kidney at 50 mg/kg, ip administered as single dose measured after 24 hrs by hematoxylin and eosin staining based assay; assay type: organism-based; settings: in vivo
[12] = Acute toxicity in BALB/c mouse assessed as change in RBC count at 50 mg/kg, ip administered as single dose measured after 24 hrs; assay type: organism-based; settings: in vivo
[13] = Acute toxicity in BALB/c mouse assessed as change in hemoglobin level at 50 mg/kg, ip administered as single dose measured after 24 hrs; assay type: organism-based; settings: in vivo
[14] = Acute toxicity in BALB/cmouse assessed as change in hematocrit level at 50 mg/kg, ip administered as single dose measured after 24 hrs; assay type: organism-based, BALB/c; settings: mouse, in vivo
[15] = Acute toxicity in BALB/c mouse assessed as change in mean corpuscular volume at 50 mg/kg, ip administered as single dose measured after 24 hrs; assay type: organism-based; settings: in vivo
[16] = Acute toxicity in BALB/c mouse assessed as change in creatinine level in serum at 50 mg/kg, ip administered as single dose measured after 24 hrs; assay type: organism-based; settings: in vivo
[17] = Zinc chelation-dependent inhibition of VIM-2 (unknown origin) expressed in Escherichia coli DH5 alpha using nitrocefin as substrate preincubated with enzyme for 5 mins followed by substrate addition in presence of zinc sulfate
Escherichia coli [18] = assay: Antibacterial activity against NDM-1 producing Escherichia coli DH5 alpha assessed as bacterial growth at 8 ug/ml incubated for 16 to 20 hrs by CLSI based microdilution method; assay type: functional; settings: dose 8 µg/ml; time 16-20 hrs
Escherichia coli [19] = assay: Antibiotic adjuvant activity against meropenem-treated NDM-1 producing Escherichia coli DH5 alpha assessed as inhibition of bacterial growth at 8 ug/ml incubated for 16 to 20 hrs in the presence of meropenem and 100 uM zinc sulfate by CLSI based microdilution method; assay type: functional, organism-based; settings: dose 8.0 µg/ml, time 16-20 hrs
Klebsiella pneumoniae [20] = assay: (§1) Antibiotic adjuvant activity against meropenem-treated NDM-producing carbapenem resistant Klebsiella pneumoniae infected in BALB/c mouse sepsis model assessed as reduction of bacterial load in spleen at 10 mg/kg, ip in the presence of meropenem observed for 2 days; assay type: functional, organism-based; settings: time 2.0 day
Klebsiella pneumoniae [21] = assay: Antibacterial activity against NDM-producing carbapenem resistant Klebsiella pneumoniae infected in BALB/c mouse sepsis model assessed as swollen and degenerated liver cells with localized focal necrosis at 10 mg/kg, ip observed for 2 days by HE staining based assay; assay type: functional, organism-based; settings: time 2.0 day
Klebsiella pneumoniae [22] = assay: Antibacterial activity against NDM-producing carbapenem resistant Klebsiella pneumoniae infected in BALB/c mouse sepsis model assessed as dilated and congested central vein with neutrophil cell infiltration within the red pulp of the spleen at 10 mg/kg, ip observed for 2 days by HE staining based assay; assay type: functional, organism-based; settings: time 2.0 day
Klebsiella pneumoniae [23] = assay: as §1, with “reduction in neutrophil infiltration in red pulp” for “reduction”, “of” for “of bacterial load in”, “days by HE staining based assay” for “days”; assay type: functional, organism-based; settings: time 2.0 day
Escherichia coli [24] = assay: Synergistic antibacterial activity against IMP-4 producing Escherichia coli DH5alpha assessed as fractional inhibitory concentration index incubated for 16 to 20 hrs in presence of meropenem by checkerboard assay; assay type: functional, DH5[alpha]; settings: time 16-20 hrs
Escherichia coli [25] = assay: Synergistic antibacterial activity against NDM-1 producing Escherichia coli DH5alpha assessed as fractional inhibitory concentration index incubated for 16 to 20 hrs in presence of meropenem by checkerboard assay; assay type: functional, DH5[alpha]; settings: time 16-20 hrs
Escherichia coli [26] = assay: Antibiotic adjuvant activity against NDM-1 producing Escherichia coli DH5alpha assessed as potentiation of meropenem-induced antibacterial activity incubated for 16 to 20 hrs by agar disc diffusion assay; assay type: functional, organism-based; settings: DH5[alpha], time 16-20 hrs
Escherichia coli [27] = assay: Antibiotic adjuvant activity against VIM-1 producing Escherichia coli DH5alpha assessed as potentiation of meropenem-induced antibacterial activity incubated for 16 to 20 hrs by agar disc diffusion assay; assay type: functional, organism-based; settings: DH5[alpha], time 16-20 hrs
Escherichia coli [28] = assay: Antibiotic adjuvant activity against NDM-1 producing Escherichia coli DH5alpha assessed as potentiation of meropenem-induced antibacterial activity by measuring fold reduction in meropenem MIC at 16 ug/ml incubated for 16 to 20 hrs by checkerboard assay; assay type: functional, DH5[alpha]; settings: dose 16 µg/ml; time 16-20 hrs
Klebsiella pneumoniae [29] = assay: Antibiotic adjuvant activity against meropenem-treated NDM-producing carbapenem resistant Klebsiella pneumoniae infected in BALB/c mouse sepsis model assessed as survival rate at 10 mg/kg, ip in the presence of meropenem measured after 7 days; assay type: functional; settings: 168 h, time 7 day

Compound	Activity (Klebsiella pneumoniae [1]) [%]	Activity (Klebsiella pneumoniae [2])	Activity (Escherichia coli [3]) [%]	IC50 [4] [nM]	IC50 [5] [nM]	MIC (Escherichia coli [6]) [µg/mL]	MIC (Escherichia coli [7]) [µg/mL]	Activity (Enterobacter cloacae)	Activity (Klebsiella oxytoca)	Activity (Citrobacter freundii)	Activity (Escherichia coli [8]) [%]	Activity (Escherichia coli [9]) [%]	Activity (GES1)	Activity [10]	Activity [11]	Activity [12]	Activity [13]	Activity [14]	Activity [15]	Activity [16]	further results
C[C@@H](C(=O)O)N(Cc1cccc(C(=O)O)n1)Cc1cccc(C(=O)O)n1	83	inactive	95	1690	4170	128 (≈ 356 µM)	128 (≈ 356 µM)	inactive	inactive	inactive	<10	100	Non-Toxic	Non-Toxic	Non-Toxic	Non-Toxic	Non-Toxic	Non-Toxic	Non-Toxic	Non-Toxic	Activity [17]: inactive; Activity (Escherichia coli [18]): 95%; Activity (Escherichia coli [19]): inactive; Activity (Klebsiella pneumoniae [20]): Active; Activity (Klebsiella pneumoniae [21]): inactive; Activity (Klebsiella pneumoniae [22]): inactive; Activity (Klebsiella pneumoniae [23]): Active; fractional inhibitory concentration index (FICI) (Escherichia coli [24]): 0.14; fractional inhibitory concentration index (FICI) (Escherichia coli [25]): 0.07; Activity (Escherichia coli [26]): Active; Activity (Escherichia coli [27]): Active; fold change (FC) (Escherichia coli [28]): >1000
C[C@H](C(=O)O)N(Cc1cccc(C(=O)O)n1)Cc1cccc(C(=O)O)n1	83	inactive	95	1600	4400	128 (≈ 356 µM)	128 (≈ 356 µM)	inactive	inactive	inactive	<10	100	Non-Toxic	Non-Toxic	Non-Toxic	Non-Toxic	Non-Toxic	Non-Toxic	Non-Toxic	Non-Toxic	survival at 10 mg/kg (Klebsiella pneumoniae [29]): 100%; Activity [17]: inactive; Activity (Escherichia coli [18]): 95%; Activity (Escherichia coli [19]): inactive; Activity (Klebsiella pneumoniae [20]): Active; Activity (Klebsiella pneumoniae [21]): inactive; Activity (Klebsiella pneumoniae [22]): inactive; Activity (Klebsiella pneumoniae [23]): Active; fractional inhibitory concentration index (FICI) (Escherichia coli [24]): 0.14; fractional inhibitory concentration index (FICI) (Escherichia coli [25]): 0.07; Activity (Escherichia coli [26]): Active; Activity (Escherichia coli [27]): Active; fold change (FC) (Escherichia coli [28]): >1000
